Assay results reported in ChEMBL document CHEMBL4130416, “Glycine-replaced derivatives of [Pro3,DLeu9]TL, a temporin L analogue: Evaluation of antimicrobial, cytotoxic and hemolytic activities” (Eur J Med Chem, 2017).
In brackets after ≈: the same amount, converted by molar mass. Each block holds one compound with its values, some of them ahead of it. Activity calls are given as the source filed them. The calls are words filed in the database; no cut-off is given here. Where a SMILES comes first, the peptide text is derived from it. [ ]: non-standard residue; d: D form.

Assays:
Staphylococcus aureus [1] = assay: Antimicrobial activity against methicillin resistant Staphylococcus aureus clinical isolate 1 after 18 to 20 hrs by microbroth dilution method; assay type: functional
HaCaT [2] = assay: Cytotoxicity against human HaCaT cells at 50 uM after 24 hrs by MTT assay relative to control; assay type: cell-based
[3] = test system: Staphylococcus epidermidis; assay: Antimicrobial activity against Staphylococcus epidermidis ATCC 12228 after 18 to 20 hrs by microbroth dilution method; assay type: functional
Acinetobacter baumannii [4] = assay: Antimicrobial activity against Acinetobacter baumannii ATCC 19606 assessed as induction of membrane-perturbation at MIC measured every minute for 120 mins by SYTOX green fluorescence dye influx assay; assay type: functional, organism-based; settings: ATCC 19606 = CIP 70.34 = JCM 6841
Staphylococcus aureus [5] = assay: Antimicrobial activity against multisensitive Staphylococcus aureus after 18 to 20 hrs by microbroth dilution method; assay type: functional
Escherichia coli [6] = assay: Antimicrobial activity against multisensitive Escherichia coli clinical isolate 2 after 18 to 20 hrs by microbroth dilution method; assay type: functional
[7] = Hemolytic activity against human erythrocytes at 6.25 uM after 40 mins relative to control; assay type: ADME, cell-based, Erythrocyte; settings: read-out: Activity
Candida albicans [8] = assay: Antimicrobial activity against Candida albicans clinical isolate 1 after 18 to 20 hrs by microbroth dilution method; assay type: functional
Pseudomonas aeruginosa [9] = assay: Antimicrobial activity against multisensitive Pseudomonas aeruginosa after 18 to 20 hrs by microbroth dilution method; assay type: functional
HaCaT [10] = assay: Cytotoxicity against human HaCaT cells at 1.56 to 6.25 uM after 24 hrs by MTT assay; assay type: cell-based
Staphylococcus aureus [11] = assay: Antimicrobial activity against Staphylococcus aureus Cowan I after 18 to 20 hrs by microbroth dilution method; assay type: functional
[12] = Hemolytic activity against human erythrocytes at 25 uM after 40 mins relative to control; assay type: ADME, cell-based, Erythrocyte; settings: read-out: Activity
Pseudomonas aeruginosa [13] = assay: Antimicrobial activity against Pseudomonas aeruginosa ATCC 27853 after 18 to 20 hrs by microbroth dilution method; assay type: functional
Pseudomonas syringae = assay: Antimicrobial activity against Pseudomonas syringae pv tabaci NCPPB 1918 after 18 to 20 hrs by microbroth dilution method; assay type: functional, Pseudomonas amygdali pv. tabaci
[14] = Metabolic stability in 90% human serum assessed as parent compound remaining at […] after 120 mins by RP-UHPLC analysis; assay type: ADME, cell-free; settings: read-out: Stability
Priestia megaterium = assay: Antimicrobial activity against Bacillus megaterium Bm11 after 18 to 20 hrs by microbroth dilution method; assay type: functional
Escherichia coli [15] = assay: Antimicrobial activity against multisensitive Escherichia coli clinical isolate 1 after 18 to 20 hrs by microbroth dilution method; assay type: functional
Staphylococcus aureus [16] = assay: Antimicrobial activity against macrolid resistant Staphylococcus aureus after 18 to 20 hrs by microbroth dilution method; assay type: functional
[17] = Hemolytic activity against human erythrocytes at 12.5 uM after 40 mins relative to control; assay type: ADME, cell-based, Erythrocyte; settings: read-out: Activity
[18] = Hemolytic activity against human erythrocytes at 3.125 uM after 40 mins relative to control; assay type: ADME, cell-based, Erythrocyte; settings: read-out: Activity
HaCaT [19] = assay: Cytotoxicity against human HaCaT cells at 12.5 uM after 24 hrs by MTT assay relative to control; assay type: cell-based
Escherichia coli [20] = assay: Antimicrobial activity against Escherichia coli D21 after 18 to 20 hrs by microbroth dilution method; assay type: functional
Staphylococcus aureus [21] = assay: Antimicrobial activity against beta-lactamase resistant Staphylococcus aureus after 18 to 20 hrs by microbroth dilution method; assay type: functional
Staphylococcus aureus [22] = assay: Antimicrobial activity against methicillin resistant Staphylococcus aureus clinical isolate 2 after 18 to 20 hrs by microbroth dilution method; assay type: functional
Candida albicans [23] = assay: Antimicrobial activity against Candida albicans ATCC 10231 assessed as induction of membrane-perturbation at MIC measured every minute for 10 mins by SYTOX green fluorescence dye influx assay; assay type: functional, organism-based
Pichia kudriavzevii = assay: Antimicrobial activity against Candida krusei ATCC 6258 after 18 to 20 hrs by microbroth dilution method; assay type: functional
Acinetobacter baumannii [24] = assay: Antimicrobial activity against Acinetobacter baumannii ATCC 19606 after 18 to 20 hrs by microbroth dilution method; assay type: functional; settings: ATCC 19606 = CIP 70.34 = JCM 6841
Candida albicans [25] = assay: Antimicrobial activity against Candida albicans ATCC 10231 after 18 to 20 hrs by microbroth dilution method; assay type: functional
[26] = Metabolic stability in 90% human serum assessed as parent compound remaining at 0.2 mM after 45 mins by RP-UHPLC analysis; assay type: ADME, cell-free; settings: read-out: Stability
Candida albicans [27] = assay: Antimicrobial activity against Candida albicans clinical isolate 2 after 18 to 20 hrs by microbroth dilution method; assay type: functional
[28] = test system: Staphylococcus epidermidis; assay: Antimicrobial activity against Staphylococcus epidermidis ATCC 12228 assessed as membrane-perturbation measured every minute for 120 mins by SYTOX green fluorescence dye influx assay; assay type: functional, organism-based
[29] = Hemolytic activity against human erythrocytes at 50 uM after 40 mins relative to control; assay type: ADME, cell-based, Erythrocyte; settings: read-out: Activity
HaCaT [30] = assay: Cytotoxicity against human HaCaT cells at 25 uM after 24 hrs by MTT assay relative to control; assay type: cell-based
Klebsiella pneumoniae = assay: Antimicrobial activity against multisensitive Klebsiella pneumoniae after 18 to 20 hrs by microbroth dilution method; assay type: functional
HaCaT [31] = assay: Cytotoxicity against human HaCaT cells at 6.25 uM after 24 hrs by MTT assay relative to control; assay type: cell-based

Compound: CC[C@H](C)[C@H](NC(=O)[C@H](CCCNC(=N)N)NC(=O)[C@H](Cc1c[nH]c2ccccc12)NC(=O)[C@@H](CC(C)C)NC(=O)[C@H](Cc1ccccc1)NC(=O)[C@H](CCCCN)NC(=O)[C@H](CO)NC(=O)[C@H](Cc1ccccc1)NC(=O)[C@H](Cc1c[nH]c2ccccc12)NC(=O)[C@@H]1CCCN1C(=O)[C@@H](NC(=O)[C@@H](N)Cc1ccccc1)C(C)C)C(=O)N[C@@H](CC(C)C)C(N)=O (H-FVPWFSKF[dL]WRIL-NH2)
MIC (Staphylococcus aureus [1]): 6.25 µM (≈ 10.9 µg/mL) | Activity (HaCaT [2]): 89.3% | MIC [3]: 1.56 µM (≈ 2.71 µg/mL) | Activity (Acinetobacter baumannii [4]): Active | MIC (Staphylococcus aureus [5]): 6.25 µM (≈ 10.9 µg/mL) | MIC (Escherichia coli [6]): 50 µM (≈ 86.9 µg/mL) | hemolysis at 40 min, 6.25 µM [7]: 4% | MIC (Candida albicans [8]): 25 µM (≈ 43.5 µg/mL) | MIC (Pseudomonas aeruginosa [9]): > 50 µM | Activity (HaCaT [10]): Non-Toxic | MIC (Staphylococcus aureus [11]): 3.12 µM (≈ 5.43 µg/mL) | hemolysis at 40 min, 25 µM [12]: 20% | MIC (Pseudomonas aeruginosa [13]): > 50 µM | MIC (Pseudomonas syringae): 1.56 µM (≈ 2.71 µg/mL) | remaining at 2 h [14]: 50% | MIC (Priestia megaterium): 1.56 µM (≈ 2.71 µg/mL) | MIC (Escherichia coli [15]): 50 µM (≈ 86.9 µg/mL) | MIC (Staphylococcus aureus [16]): 6.25 µM (≈ 10.9 µg/mL) | hemolysis at 40 min, 12.5 µM [17]: 7% | hemolysis at 40 min, 3.125 µM [18]: 2% | Activity (HaCaT [19]): 0% | MIC (Escherichia coli [20]): 25 µM (≈ 43.5 µg/mL) | MIC (Staphylococcus aureus [21]): 6.25 µM (≈ 10.9 µg/mL) | MIC (Staphylococcus aureus [22]): 6.25 µM (≈ 10.9 µg/mL) | Activity (Candida albicans [23]): Active | MIC (Pichia kudriavzevii): 3.12 µM (≈ 5.43 µg/mL) | MIC (Acinetobacter baumannii [24]): 3.12 µM (≈ 5.43 µg/mL) | MIC (Candida albicans [25]): 3.12 µM (≈ 5.43 µg/mL) | remaining at 0.75 h, 200 µM [26]: 80% | MIC (Candida albicans [27]): 25 µM (≈ 43.5 µg/mL) | Activity [28]: Active | hemolysis at 40 min, 50 µM [29]: 37% | Activity (HaCaT [30]): 32.1% | MIC (Klebsiella pneumoniae): > 50 µM

MIC [3]: 1.56 µM (≈ 2.71 µg/mL) | MIC (Staphylococcus aureus [11]): 3.12 µM (≈ 5.43 µg/mL) | MIC (Pseudomonas aeruginosa [13]): 50 µM (≈ 86.9 µg/mL) | MIC (Pseudomonas syringae): 3.12 µM (≈ 5.43 µg/mL) | MIC (Priestia megaterium): 3.12 µM (≈ 5.43 µg/mL) | MIC (Escherichia coli [20]): 25 µM (≈ 43.5 µg/mL) | MIC (Pichia kudriavzevii): 3.12 µM (≈ 5.43 µg/mL) | MIC (Acinetobacter baumannii [24]): 3.12 µM (≈ 5.43 µg/mL) | MIC (Candida albicans [25]): 3.12 µM (≈ 5.43 µg/mL)
Compound: CC[C@H](C)[C@H](NC(=O)[C@H](CCCNC(=N)N)NC(=O)[C@@H](Cc1c[nH]c2ccccc12)NC(=O)[C@@H](CC(C)C)NC(=O)[C@H](Cc1ccccc1)NC(=O)[C@H](CCCCN)NC(=O)[C@H](CO)NC(=O)[C@H](Cc1ccccc1)NC(=O)[C@H](Cc1c[nH]c2ccccc12)NC(=O)[C@@H]1CCCN1C(=O)[C@@H](NC(=O)[C@@H](N)Cc1ccccc1)C(C)C)C(=O)N[C@@H](CC(C)C)C(N)=O (H-FVPWFSKF[dL][dW]RIL-NH2)
Activity (HaCaT [2]): 96.77% | Activity (HaCaT [19]): 19.21% | Activity (HaCaT [31]): 15% | Activity (HaCaT [30]): 35.34%

Compound: CC[C@H](C)[C@H](NC(=O)[C@H](CCCNC(=N)N)NC(=O)CNC(=O)[C@@H](CC(C)C)NC(=O)[C@H](Cc1ccccc1)NC(=O)[C@H](CCCCN)NC(=O)[C@H](CO)NC(=O)[C@H](Cc1ccccc1)NC(=O)[C@H](Cc1c[nH]c2ccccc12)NC(=O)[C@@H]1CCCN1C(=O)[C@@H](NC(=O)[C@@H](N)Cc1ccccc1)C(C)C)C(=O)N[C@@H](CC(C)C)C(N)=O (H-FVPWFSKF[dL]GRIL-NH2)
MIC (Staphylococcus aureus [1]): 12.5 µM (≈ 20.1 µg/mL) | Activity (HaCaT [2]): 91.58% | MIC [3]: 6.25 µM (≈ 10.1 µg/mL) | MIC (Staphylococcus aureus [5]): 12.5 µM (≈ 20.1 µg/mL) | MIC (Escherichia coli [6]): 50 µM (≈ 80.4 µg/mL) | hemolysis at 40 min, 6.25 µM [7]: 3% | MIC (Candida albicans [8]): 25 µM (≈ 40.2 µg/mL) | MIC (Pseudomonas aeruginosa [9]): > 50 µM | Activity (HaCaT [10]): Non-Toxic | MIC (Staphylococcus aureus [11]): 12.5 µM (≈ 20.1 µg/mL) | hemolysis at 40 min, 25 µM [12]: 7% | MIC (Pseudomonas aeruginosa [13]): 50 µM (≈ 80.4 µg/mL) | MIC (Pseudomonas syringae): 12.5 µM (≈ 20.1 µg/mL) | remaining at 2 h [14]: 20% | MIC (Priestia megaterium): 3.12 µM (≈ 5.03 µg/mL) | MIC (Escherichia coli [15]): 50 µM (≈ 80.4 µg/mL) | MIC (Staphylococcus aureus [16]): 12.5 µM (≈ 20.1 µg/mL) | hemolysis at 40 min, 12.5 µM [17]: 6% | hemolysis at 40 min, 3.125 µM [18]: 1% | Activity (HaCaT [19]): 20.63% | MIC (Escherichia coli [20]): 12.5 µM (≈ 20.1 µg/mL) | MIC (Staphylococcus aureus [21]): 12.5 µM (≈ 20.1 µg/mL) | MIC (Staphylococcus aureus [22]): 12.5 µM (≈ 20.1 µg/mL) | MIC (Pichia kudriavzevii): 3.12 µM (≈ 5.03 µg/mL) | MIC (Acinetobacter baumannii [24]): 12.5 µM (≈ 20.1 µg/mL) | MIC (Candida albicans [25]): 3.12 µM (≈ 5.03 µg/mL) | remaining at 0.75 h, 200 µM [26]: 45% | MIC (Candida albicans [27]): 25 µM (≈ 40.2 µg/mL) | hemolysis at 40 min, 50 µM [29]: 21% | Activity (HaCaT [30]): 57.52% | MIC (Klebsiella pneumoniae): > 50 µM
